In US9211326B2, “Method of enhancing the proliferative phase of a primary T cell response” (Tampa Bay Research Institute, priority 2013, dated 2015):
Entries after “also recorded” stand apart in the source; their conditions may differ.

Legend:
Bcl-2 [1] = settings: cited from earlier work
IL-12p70 = test system: IL-12p70; set-up: species or system Balb/c mice; settings: mouse, in vivo
Vβ8+ T cells [2] = test system: Vβ8+ T cells; set-up: species or system Balb/c mice; settings: mouse, in vivo
Bcl-2 [3] = test system: Bcl-2; set-up: species or system Balb/c mice; settings: mouse, in vivo
IFNg = test system: IFNg; set-up: species or system Balb/c mice; settings: mouse, in vivo
Bcl-xL mRNA = experiment: qPCR gene expression in lymph node cells: Bcl-xL; set-up: species or system Balb/c mice; settings: mouse, in vivo
Bax mRNA = test system: Bax mRNA; set-up: species or system Balb/c mice; settings: mouse, in vivo
IL-2 = test system: IL-2; set-up: species or system Balb/c mice; settings: mouse, in vivo
Vβ8+ T cells [4] = test system: Vβ8+ T cells; set-up: species or system Balb/c mice; settings: mouse, in vivo; remark: listed apart in the source
Bcl-2 mRNA = experiment: qPCR gene expression in lymph node cells: Bcl-2; set-up: species or system Balb/c mice; settings: mouse, in vivo

Row | Molecule | ROS induced decline in Bcl-2 (Bcl-2 [1]) | serum IL-12p70 level (IL-12p70) | numbers of CD3+/CD8+/Vβ8+ T cells (Vβ8+ T cells [2]) | intracellular Bcl-2 protein per Vβ8+ T cell (Bcl-2 [3]) | serum IFNg level (IFNg) | Bcl-xL mRNA level in lymph nodes (Bcl-xL mRNA) | Bax mRNA level in lymph nodes (Bax mRNA) | serum IL-2 level (IL-2) | percentage of Annexin V positive Vβ8+ T cells (Vβ8+ T cells [4]) | Bcl-2 mRNA level in lymph nodes (Bcl-2 mRNA)
1 | O=C(O)c1ccc(/C2=C3\C=CC(=N3)/C(c3ccc(C(=O)O)cc3)=c3/cc/c4[n]3[Mn]([Cl])[n]3c2ccc3/C(c2ccc(C(=O)O)cc2)=C2/C=CC(=N2)\C=4c2ccc(C(=O)O)cc2)cc1 [MnTBAP] | reversed | – | – | – | – | – | – | – | – | –
2 | Staphylococcal enterotoxin B [SEB] | – | significant increase | remained elevated | equally reduced amounts | significant increase | suppressed; also recorded: reduced | did not appear to be significantly affected | significant increase | significantly enhanced | suppressed; also recorded: reduction
